Measured values as given in ChEMBL document CHEMBL4184127, “Isolation of a peptide containing d-amino acid residues that inhibits the α-helix-mediated p53-MDM2 interaction from a one-bead one-compound library” (Bioorg Med Chem Lett, 2018).

How the values were obtained:
[1] = Metabolic stability in human serum assessed as compound remaining at 3 mM after 72 hrs by HPLC analysis; format: ADME, cell-free; details: read-out: Stability
[2] = Metabolic stability in human serum assessed as compound remaining at 3 mM after 24 hrs by HPLC analysis; format: ADME, cell-free; details: read-out: Stability

remaining at 72 h, 3000 µM [1] [%] | remaining at 24 h, 3000 µM [2] [%] | SMILES
36 | 62 | CC(C)C[C@@H](NC(=O)[C@@H](CC(=O)O)NC(=O)[C@@H](CCC(=O)O)NC(=O)[C@H](NC(=O)[C@@H](CC(C)C)NC(=O)[C@@H](CCC(=O)O)NC(=O)C(C)(C)NC(=O)[C@@H](Cc1c[nH]c2ccccc12)NC(=O)[C@H](NC(=O)[C@H](N)CC(=O)O)[C@@H](C)O)C(C)C)C(=O)N[C@H](CC(N)=O)C(=O)NCC(=O)NCC(=O)NCC(=O)N[C@@H](CO)C(=O)N[C@@H](Cc1ccc(Br)cc1)C(=O)N[C@@H](CCCNC(=N)N)C(N)=O
 | 24 | CC(C)C[C@H](NC(=O)[C@H](CC(=O)O)NC(=O)[C@H](CCC(=O)O)NC(=O)[C@@H](NC(=O)[C@H](CC(C)C)NC(=O)[C@H](CCC(=O)O)NC(=O)C(C)(C)NC(=O)[C@H](Cc1c[nH]c2ccccc12)NC(=O)[C@@H](NC(=O)[C@@H](N)CC(=O)O)[C@@H](C)O)C(C)C)C(=O)N[C@@H](CC(N)=O)C(=O)NCC(=O)NCC(=O)NCC(=O)N[C@@H](CO)C(=O)N[C@@H](Cc1ccc(Br)cc1)C(=O)N[C@@H](CCCNC(=N)N)C(N)=O
